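Each compound was tested at five concentrations against cells in 96-well plates for 48 hours. Here, GI50 denotes the concentration required for 50% inhibition of growth. TGI: total growth inhibition.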
Experiments:
Experiment in all cases: NCI-60 cell line screen, 48 h
MOLT-4 leukemia = tested on: MOLT-4 leukemia
SF-268 CNS = tested on: SF-268 CNS
SNB-19 CNS = tested on: SNB-19 CNS
ACHN renal = tested on: ACHN renal
SNB-75 CNS = tested on: SNB-75 CNS
LOX IMVI melanoma = tested on: LOX IMVI melanoma
SF-295 CNS = tested on: SF-295 CNS
HT29 colon = tested on: HT29 colon
SW-620 colon = tested on: SW-620 colon
EKVX NSCLC = tested on: EKVX NSCLC

In the case of `COc1cc(-c2c(C#N)c(N)n3c(nc4ccccc43)c2C#N)cc(Br)c1OC`, the GI50 (MOLT-4 leukemia) is reported as greater than 100 µM, the TGI (MOLT-4 leukemia) is reported as greater than 100 µM and the GI50 (SF-268 CNS) is reported as 77.5 µM. The TGI (SF-268 CNS) was greater than 100 µM, the GI50 (SNB-19 CNS) was greater than 100 µM and the TGI (SNB-19 CNS) was greater than 100 µM. It also gave a GI50 (ACHN renal) greater than 100 µM, a TGI (ACHN renal) greater than 100 µM and a GI50 (SNB-75 CNS) of 2.18 µM. The TGI (SNB-75 CNS) was 9.98 µM, the GI50 (LOX IMVI melanoma) was greater than 100 µM and the TGI (LOX IMVI melanoma) was greater than 100 µM. The GI50 (SF-295 CNS) was greater than 100 µM and the TGI (SF-295 CNS) was greater than 100 µM.
`COc1ccc2cc(C(=O)/C=C/c3cccc(OC)c3OC)ccc2c1` gave a GI50 (MOLT-4 leukemia) of 3.12 µM, a TGI (MOLT-4 leukemia) of 15.6 µM and a GI50 (HT29 colon) of 4.07 µM. It also gave a TGI (HT29 colon) of 17.6 µM, a GI50 (SF-268 CNS) of 24.2 µM and a TGI (SF-268 CNS) of 50.8 µM. It also gave a GI50 (SNB-19 CNS) of 15.6 µM, a TGI (SNB-19 CNS) of 33.5 µM and a GI50 (ACHN renal) of 8.38 µM. It also gave a TGI (ACHN renal) of 22.2 µM, a GI50 (SNB-75 CNS) of 18.5 µM and a TGI (SNB-75 CNS) of 35.6 µM. For the same compound, the GI50 (SW-620 colon) was 9.53 µM, the TGI (SW-620 colon) was 29.1 µM and the GI50 (EKVX NSCLC) was 17.9 µM. For the same compound, the TGI (EKVX NSCLC) was 36.7 µM.
In the case of `CCc1cccc(C)c1NC(C)=O`, the TGI (MOLT-4 leukemia) is reported as greater than 100 µM, the TGI (HT29 colon) is reported as greater than 100 µM and the TGI (ACHN renal) is reported as greater than 100 µM. The TGI (SNB-75 CNS) was greater than 100 µM, the TGI (SW-620 colon) was greater than 100 µM and the TGI (SF-295 CNS) was greater than 100 µM. The TGI (EKVX NSCLC) was greater than 100 µM.
With `CCCCC/C=C/C/C=C/CCCCCCCC1=NC(C)(C)CN1C(C)C` the GI50 (HT29 colon) was 1.38 µM, the TGI (HT29 colon) was 2.74 µM and the GI50 (SF-268 CNS) was 1.68 µM. It also gave a TGI (SF-268 CNS) of 3.05 µM, a GI50 (SNB-19 CNS) of 1.59 µM and a TGI (SNB-19 CNS) of 3 µM. It also gave a GI50 (ACHN renal) of 1.7 µM, a TGI (ACHN renal) of 3.07 µM and a GI50 (SNB-75 CNS) of 1.44 µM. The TGI (SNB-75 CNS) was 2.87 µM, the GI50 (SW-620 colon) was 1.6 µM and the TGI (SW-620 colon) was 2.99 µM. For the same compound, the GI50 (SF-295 CNS) was 1.49 µM, the TGI (SF-295 CNS) was 2.83 µM and the GI50 (EKVX NSCLC) was 1.3 µM. It also gave a TGI (EKVX NSCLC) of 2.73 µM.
`Cc1cc(C)cc(Nc2cc(C)nc3nc(C(F)(F)F)nn23)c1` was tested, and the GI50 (MOLT-4 leukemia) was greater than 100 µM, the TGI (MOLT-4 leukemia) was greater than 100 µM and the GI50 (HT29 colon) was greater than 100 µM. For the same compound, the TGI (HT29 colon) was greater than 100 µM, the GI50 (SF-268 CNS) was 44.4 µM and the TGI (SF-268 CNS) was greater than 100 µM. For the same compound, the GI50 (SNB-19 CNS) was greater than 100 µM, the TGI (SNB-19 CNS) was greater than 100 µM and the GI50 (ACHN renal) was 58.7 µM. It also gave a TGI (ACHN renal) greater than 100 µM, a GI50 (SNB-75 CNS) of 25.2 µM and a TGI (SNB-75 CNS) greater than 100 µM. It also gave a GI50 (LOX IMVI melanoma) greater than 100 µM, a TGI (LOX IMVI melanoma) greater than 100 µM and a GI50 (SW-620 colon) greater than 100 µM. It also gave a TGI (SW-620 colon) greater than 100 µM, a GI50 (SF-295 CNS) of 32.3 µM and a TGI (SF-295 CNS) greater than 100 µM.
With `CSc1ccc(/C=C2/C[N+](C)(C)C/C(=C/c3ccc(SC)cc3)C2=O)cc1` the TGI (MOLT-4 leukemia) was 67.4 µM, the TGI (SF-268 CNS) was 22.7 µM and the TGI (ACHN renal) was greater than 100 µM. For the same compound, the TGI (SNB-75 CNS) was 62.4 µM, the TGI (SW-620 colon) was 28.1 µM and the TGI (SF-295 CNS) was 65 µM. The TGI (EKVX NSCLC) was 35.1 µM.
With `Cn1cc(C2=C(c3cn(CCCN=C(N)N)c4ccccc34)C(=O)NC2=O)c2ccccc21` the GI50 (MOLT-4 leukemia) was greater than 25 µM, the TGI (MOLT-4 leukemia) was greater than 25 µM and the GI50 (HT29 colon) was greater than 25 µM. The TGI (HT29 colon) was greater than 25 µM, the GI50 (SF-268 CNS) was greater than 25 µM and the TGI (SF-268 CNS) was greater than 25 µM. For the same compound, the GI50 (SNB-19 CNS) was greater than 25 µM, the TGI (SNB-19 CNS) was greater than 25 µM and the GI50 (ACHN renal) was greater than 25 µM. It also gave a TGI (ACHN renal) greater than 25 µM, a GI50 (SNB-75 CNS) of 0.361 µM and a TGI (SNB-75 CNS) greater than 25 µM. It also gave a GI50 (LOX IMVI melanoma) greater than 25 µM, a TGI (LOX IMVI melanoma) greater than 25 µM and a GI50 (SW-620 colon) greater than 25 µM. For the same compound, the TGI (SW-620 colon) was greater than 25 µM, the GI50 (SF-295 CNS) was greater than 25 µM and the TGI (SF-295 CNS) was greater than 25 µM.
Work on `Cc1cccc(C(C)(C)C)c1NC(=O)CCc1n[nH]c(=S)o1` yielded a TGI (MOLT-4 leukemia) greater than 100 µM, a TGI (HT29 colon) greater than 100 µM and a TGI (SF-268 CNS) greater than 100 µM. The TGI (SNB-19 CNS) was greater than 100 µM, the TGI (ACHN renal) was greater than 100 µM and the TGI (SNB-75 CNS) was greater than 100 µM. The TGI (SW-620 colon) was 34.1 µM, the TGI (SF-295 CNS) was greater than 100 µM and the TGI (EKVX NSCLC) was greater than 100 µM.
`COc1ccc(-c2nc(-c3nc4ccc(C)cc4[nH]3)c3ccccn23)cc1` showed a GI50 (MOLT-4 leukemia) of 2.17 µM, a TGI (MOLT-4 leukemia) of 7.99 µM and a GI50 (HT29 colon) of 3.36 µM. The TGI (HT29 colon) was greater than 100 µM, the GI50 (SF-268 CNS) was 2.8 µM and the TGI (SF-268 CNS) was greater than 100 µM. The GI50 (SNB-19 CNS) was 2.97 µM, the TGI (SNB-19 CNS) was greater than 100 µM and the GI50 (SNB-75 CNS) was 5.49 µM. The TGI (SNB-75 CNS) was greater than 100 µM, the GI50 (LOX IMVI melanoma) was 3.03 µM and the TGI (LOX IMVI melanoma) was 7.73 µM. The GI50 (SW-620 colon) was 3.12 µM and the TGI (SW-620 colon) was greater than 100 µM.
Work on `Cc1c2c(nn1-c1ccc(S(=O)(=O)/N=C3\SCC(=O)N3C(=O)c3ccccc3)cc1)-c1ccccc1CC2` yielded a GI50 (MOLT-4 leukemia) greater than 100 µM, a TGI (MOLT-4 leukemia) greater than 100 µM and a GI50 (HT29 colon) of 63.5 µM. The TGI (HT29 colon) was greater than 100 µM, the GI50 (SF-268 CNS) was 44.6 µM and the TGI (SF-268 CNS) was greater than 100 µM. The GI50 (ACHN renal) was 24.6 µM, the TGI (ACHN renal) was 70.2 µM and the GI50 (LOX IMVI melanoma) was greater than 100 µM. It also gave a TGI (LOX IMVI melanoma) greater than 100 µM, a GI50 (SW-620 colon) greater than 100 µM and a TGI (SW-620 colon) greater than 100 µM. The GI50 (SF-295 CNS) was 21.6 µM, the TGI (SF-295 CNS) was 58.2 µM and the GI50 (EKVX NSCLC) was 40.5 µM. The TGI (EKVX NSCLC) was 90.7 µM.
Compound `Cn1cc(C2=C(c3cn(C)c4c(N)cccc34)C(=O)NC2=O)c2ccccc21` has a GI50 (MOLT-4 leukemia) of 3.35 µM, a TGI (MOLT-4 leukemia) of 21.6 µM and a GI50 (HT29 colon) of 1.25 µM. For the same compound, the TGI (HT29 colon) was 12.8 µM, the GI50 (SF-268 CNS) was 2.86 µM and the TGI (SF-268 CNS) was greater than 25 µM. For the same compound, the GI50 (SNB-19 CNS) was 4.34 µM, the TGI (SNB-19 CNS) was greater than 25 µM and the GI50 (ACHN renal) was 1.34 µM. It also gave a TGI (ACHN renal) greater than 23.9 µM, a GI50 (SNB-75 CNS) of 0.352 µM and a TGI (SNB-75 CNS) of 2.63 µM. For the same compound, the GI50 (LOX IMVI melanoma) was 1.94 µM, the TGI (LOX IMVI melanoma) was greater than 25 µM and the GI50 (SW-620 colon) was 0.905 µM. For the same compound, the TGI (SW-620 colon) was greater than 25 µM, the GI50 (SF-295 CNS) was 0.898 µM and the TGI (SF-295 CNS) was greater than 11.6 µM.
With `CCCCn1c(-c2ccc(C(=O)O/N=C(\N)c3ccc(OC)cc3)cc2)nc(-c2ccccc2)c1-c1ccccc1` the GI50 (HT29 colon) was 2.9 µM, the TGI (HT29 colon) was greater than 100 µM and the GI50 (SNB-19 CNS) was 1.91 µM. For the same compound, the TGI (SNB-19 CNS) was 5.01 µM, the GI50 (ACHN renal) was 0.599 µM and the TGI (ACHN renal) was 1.85 µM. The GI50 (SNB-75 CNS) was 1.36 µM, the TGI (SNB-75 CNS) was 3.05 µM and the GI50 (LOX IMVI melanoma) was 0.181 µM. For the same compound, the TGI (LOX IMVI melanoma) was 0.342 µM, the GI50 (SF-295 CNS) was 1.53 µM and the TGI (SF-295 CNS) was 2.97 µM.
